# EP0578726B1, “VIRUS INACTIVATION METHOD” (VEGATEC, priority 1991, dated 1992)
# Columns and labels:
# [1] = system: Herpès simplex virus II (HSVII); experiment: Example I: inactivation of HSVII suspensions, detection in cell culture; assay type: cell-based; conditions: 6,5 g/l of (III)
# Experimental: Herpès simplex virus II (HSVII) est entretenu en culture cellulaire et les suspensions virales obtenues ont une dose infectieuse 50% (DI50) à une dilution de 10⁻⁶.
# Les suspensions virales sont mises en contact avec 6,5g/l de (III) pendant 1h, 2h, 4h à 30°C.
# Des témoins positifs sont réalisés dans les mêmes conditions d'incubation sans addition de (III).
# L'effet virucide de (III) est arrêté par dilution au 1/100e avec du milieu de culture sans virus. La concentration virale atteint alors 10⁴DI50 pour l'effet de dilution.
# [2] = system: Herpès Simplex Virus II (HSV II); experiment: Example II: kinetics of HSV II inactivation, titration on receptor cells; assay type: cell-based; conditions: after 15 minutes of contact, (III) 5 g/l final concentration
# Experimental: Herpès Simplex Virus II (HSV II) de l'exemple 1 est incubé avec une solution de (III) à 5 g/l en concentration finale dans son milieu de culture.
# Des prélèvements sont effectués à intervalles de temps 5, 10, 15, 30 et 60 minutes, puis titrés pour leur contenu en virus infectieux sur cellules réceptrices en culture.
# C 1 estérase = experiment: Example VIII: inhibitory capacity of treated C 1 Inactivateur towards C 1 estérase; assay type: biochemical; conditions: 6 h - 24°C, (III) at 6,5 g/l, % of inhibitory activity of purified C 1 Inactivateur without additive at To
# Experimental: La protéine a donc été traitée d'une part avec le procédé solvant-détergent, d'autre part avec (III) à une concentration finale de 6,5 g/l pendant 6 h à 24°C, dans le but d'obtenir l'inactivation des virus éventuellement présents dans la matière première.
# Le tableau H montre l'influence du traitment d'inactivation virale sur les propriétés inhibitrices du C 1 Ina essayé sur trois enzymes : C 1 estérase, kallicréine, plasmine.
# Le témoin est incubé 6 h à 24°C mais ne contient aucun additif inactivant.
# L'activité inhibitrice est exprimée en % de l'activité inhibitrice du C 1 Inactivateur purifié sans additif et dosé à To.
smiles,measurement,setting,value
"CCCCCCCNC(=O)OC[C@H]1O[C@H](OC)[C@H](O)[C@@H](O)[C@@H]1O [(III), 6-O-(N-heptylcarbamoyl)méthyl-α-D-glucopyranoside]",inactivation de HSVII,"[1]; 30°C, control titre 10⁴DI50",≥ 4 log
same,activité virale de HSVII,"[1]; contact 1h, 2h, 4h at 30°C, stopped by 1/100 dilution",Aucune activité virale de HSVII n'est détectée
same,activité virale de HSVII,[2],Aucune activité virale de HSVII n'est détectée
same,Activité anti C 1 estérase,C 1 estérase; essai n° 1,"96,2%"
same,Activité anti C 1 estérase,C 1 estérase; essai n° 2,100%
